Experimental data reported in article PMC9236245, “Glycyrrhiza uralensis promote the metabolism of toxic components of Aconitum carmichaeli by CYP3A and alleviate the development of chronic heart failure” (PLoS ONE, 2022).
“And” between values parts separate entries of the source, which are not always exact repeats. Equal entries are not always repeated.

Key:
Format in all cases: in vivo
CYP3A1 mRNA = CYP3A1 mRNA expression in rat liver after 14 days dosing (RT-PCR); settings: positive induction 0.08 g/kg/D, single replicates
Excerpt: (§1) All animal procedures, including killing, were approved by the Institutional Animal Care and Use Committee at Medical College of Shanghai University of TCM. 25 SD rats, weighing 180–200 g, were purchased from Shanghai SLAC Laboratory Animal company and fed in SPF environmental condition. The rats were randomly divided into negative control, phenobarbital positive induction (0.08 g / kg / D) and Glycyrrhiza groups with different concentrations (0.33 g / kg / D, 1 g / kg / D and 3 g / kg / D), with 5 rats in each group, intragastric administration for 14 days. The phenobarbital induced group was given intraperitoneal injection three days before treatment. The animals were killed by CO2 asphyxiation, liver microsomes were prepared and were used to detect the expression of CYP3A1 / 2 mRNA in liver tissue.
(§2) Total RNA was extracted using Trizol reagent according to the manufacturer’s instructions. 1μg of total RNA was transcribed to cDNA using the PrimeScriptTM RT Master Mix kit (TaKaRa, China). Quantitative RT-PCR was performed in a reaction volume of 20μL cDNA on ABI system (Applied Biosystems, Life Technologies). The average cycle thresholds (Ct) were employed to quantify fold-change. The 2^-△△CT method was reported to calculate relative gene expression levels.

CYP3A2 mRNA = CYP3A2 mRNA expression in rat liver after 14 days dosing (RT-PCR); settings: positive induction 0.08 g/kg/D, single replicates
Excerpt: as §1, §2

CHF rat model = assay: ATP, ADP and AMP in left ventricular myocardium (HPLC) of ADR-induced CHF rats; settings: 5 mL/kg/D gavage 4 weeks
Description: According to reference, the rat model of CHF was established by intraperitoneal injection of ADR (2.5 mg / kg) once a week for six weeks. 6 weeks later, the rats were randomly divided into model group, Aconitum (0.3 g / mL), Glycyrrhizae combind with Aconitum (0.6 g / mL) and Captopril (1.25 mg / mL) group. Each treatment group was given 5 mL / kg / D by gavage for 4 weeks, the normal and model group were given the same volume of distilled water by gavage. After the last administration, the rats were killed by CO2 asphyxia, and the indexes were determined.
Weighed 100 mg of left ventricular myocardium of rats, cut into pieces, added 500 μL 4.2% perchloric acid, homogenized in ice bath, 3 000 r / min, 4°C for 15 min. Took 200 μL of the supernatant, added 135 μL of 1 mol / L NaOH, adjusted the pH to about 6.0, shaked and mixed, 8 000 r / min, 4°C for 10 min, and took 20 μL of the supernatant for HPLC analysis. There was a good linear relationship between the peak area measured by HPLC and the concentrations of ATP, AMP and ADP, and the content was calculated according to the standard curve.

| Structure (SMILES) | CYP3A1 mRNA (CYP3A1 mRNA) | CYP3A2 mRNA (CYP3A2 mRNA) | ADP level in left ventricular myocardium, difference vs model group (CHF rat model) |
| --- | --- | --- | --- |
| CCC1(c2ccccc2)C(=O)NC(=O)NC1=O [Phenobarbital] | 8.832 and 7.88 and 8.097 | 3.986 and 3.344 and 3.449 |  |
| C[C@H](CS)C(=O)N1CCC[C@H]1C(=O)O [captopril, Captopril] |  |  | -0.07185 ± 0.02716 |
